According to patent publication US11771778B2, “Using DREADD for neuronal modulation in treating neuronal diseases” (priority 2016, dated 2023):

Key:
[1] = molecular target: T1, wild-type M3 muscarinic receptor (hM3) (Homo sapiens, UniProt P20309); details: human pulmonary artery smooth muscle cells (Armbruster et al., 2007); cited from earlier work
T1 construct: host or cells: human pulmonary artery smooth muscle cells

[2] = Open field test, mice without DREADD (normal control and 6OHDA hemi PD); type: in vivo, C57 black mice; details: normal control and 6OHDA hemi PD mice, no DREADD, IP CNO 5 mg/kg, blinded
Method: (§1) To monitor the motor impairment and the ability of the DREADD therapy to reverse these impairments the following behavioral tests are conducted. Open field test: to measure motor activity dysfunction. In this test the spontaneous movement of mice in a square arena are recorded and quantified. Rotarod test: Mice were placed on a rotating rod with rotation speed gradually increasing from 4 to 40 RPM using a preset acceleration program. The time mice fell from the rotating rod was measured, with 300 seconds being the maximal time measured on the rod.
(§2) Experiments were performed on 2-4 month old wild type C57 black mice. […]
(§3) Two behavioral tests were used for monitoring the behavior of mice: (1) Open field test: Mice were placed in a 30 cm×30 cm×30 cm open top box for 5 minutes and continuous recorded on a video. The results were analyzed off-line after the experiments ended. Using the EthoVision software, the mean velocity and distance traveled by the mice were monitored during the 5 minutes of open field test. In addition, the number and direction of 180° turns were monitored with the EthoVision software. […] The time mice fell from the rotating rod was measured, with 300 seconds being the maximal time measured on the rod. […]

[3] = Rotarod test, mice without DREADD (normal control and 6OHDA hemi PD); type: in vivo, C57 black mice; details: normal control and 6OHDA hemi PD mice, no DREADD; IP CNO 5 mg/kg, blinded
Method: as §1, §2, §3

[4] = molecular target: T2, Gi DREADD (hM4D(Gi)) in the EP (GPi) and SNr nuclei (Homo sapiens, UniProt P08173, A203G/Y113C); experiment: Open field test, 6OHDA PD mice expressing Gi DREADD in EP and SNr; type: in vivo, C57 black mice
T2 construct: expressed in transfected cells; host or cells: neurons of C57 black mice (EP/SNr or STN), transduced with an AAV8 vector under the hSyn promoter
T2 sequence (P08173 1-479 Y113C/A203G): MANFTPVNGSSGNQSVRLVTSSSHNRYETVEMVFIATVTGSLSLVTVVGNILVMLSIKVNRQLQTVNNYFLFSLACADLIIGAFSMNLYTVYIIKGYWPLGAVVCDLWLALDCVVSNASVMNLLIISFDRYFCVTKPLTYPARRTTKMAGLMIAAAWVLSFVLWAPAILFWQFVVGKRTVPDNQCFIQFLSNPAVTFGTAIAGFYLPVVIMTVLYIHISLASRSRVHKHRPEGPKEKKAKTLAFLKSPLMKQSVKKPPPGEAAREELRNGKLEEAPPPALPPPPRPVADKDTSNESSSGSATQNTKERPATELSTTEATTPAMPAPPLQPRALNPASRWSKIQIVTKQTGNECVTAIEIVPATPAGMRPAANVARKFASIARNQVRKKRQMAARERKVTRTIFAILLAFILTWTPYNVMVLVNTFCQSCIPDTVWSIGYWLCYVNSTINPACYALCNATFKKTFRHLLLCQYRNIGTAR
Method: as §1
(§4) Experiments were performed on 2-4 month old wild type C57 black mice. To induce experimental PD, 1 microliter of a solution containing 6 hydroxy dopamine (6-OHDA) (3 mg/1 ml) was injected into the medial forebrain bundle via a small craniotomy drilled in the skull. The mouse head was fixated in a stereotaxic frame, and the 6OHDA containing solution was injected using a glass pipette held by a micro-manipulator and a micro-injector.
(§5) To express DREADDs (either the inhibitory DREADD Gi or the excitatory DREADD Gq) viral vectors were injected (either AAV8-hSyn-hM3D(Gq)-mCherry or AAV8-hSyn-hM4D(Gi)-mCherry). The viral vectors were injected through a craniotomy with a glass pipette held by a micromanipulator and a micro-injector. During the injections the head was fixated in a stereotaxic frame for accurate injections. Mice were anesthetized throughout the procedure with isoflurane.
(§6) The viral vectors […] were injected into several targets in the basal ganglia loop including the STN (either Gi and Gq), the EP and SNr nuclei (Gi), GPe (Gq) and the ventral thalamus (Gq). The injections were usually unilateral at the side of the 6OHDA injections. However, in cases of bilateral 6OHDA injections viral vectors were injected to the target nuclei bilaterally. Usually viral vectors and 6OHDA were injected at the same session.
(§7) To investigate the effect of DREADD activation, 500 μl of either IP CNO (5 mg/kg) or normal saline (NS-0.9% NaCl) was administered. Administration of either CNO or saline was performed in a blinded manner. […] Behavioral experiments were performed approximately 20-30 minutes after IP drug administration.
as §3

[5] = molecular target: T2, Gi DREADD (hM4D(Gi)) in the EP (GPi) and SNr nuclei; experiment: Rotarod test, 6OHDA PD mice expressing Gi DREADD in EP and SNr; type: in vivo, C57 black mice
Method: as §1, §2, §3

[6] = molecular target: T3, Gq DREADD (hM3D(Gq)) in the GPe nucleus (Homo sapiens, UniProt P20309, A239G/Y149C); experiment: Open field test, 6OHDA PD mice expressing Gq DREADD in GPe; type: in vivo, C57 black mice
T3 construct: expressed in transfected cells; host or cells: neurons of C57 black mice (GPe or STN), transduced with an AAV8 vector under the hSyn promoter
T3 sequence (P20309 whole entry Y149C/A239G): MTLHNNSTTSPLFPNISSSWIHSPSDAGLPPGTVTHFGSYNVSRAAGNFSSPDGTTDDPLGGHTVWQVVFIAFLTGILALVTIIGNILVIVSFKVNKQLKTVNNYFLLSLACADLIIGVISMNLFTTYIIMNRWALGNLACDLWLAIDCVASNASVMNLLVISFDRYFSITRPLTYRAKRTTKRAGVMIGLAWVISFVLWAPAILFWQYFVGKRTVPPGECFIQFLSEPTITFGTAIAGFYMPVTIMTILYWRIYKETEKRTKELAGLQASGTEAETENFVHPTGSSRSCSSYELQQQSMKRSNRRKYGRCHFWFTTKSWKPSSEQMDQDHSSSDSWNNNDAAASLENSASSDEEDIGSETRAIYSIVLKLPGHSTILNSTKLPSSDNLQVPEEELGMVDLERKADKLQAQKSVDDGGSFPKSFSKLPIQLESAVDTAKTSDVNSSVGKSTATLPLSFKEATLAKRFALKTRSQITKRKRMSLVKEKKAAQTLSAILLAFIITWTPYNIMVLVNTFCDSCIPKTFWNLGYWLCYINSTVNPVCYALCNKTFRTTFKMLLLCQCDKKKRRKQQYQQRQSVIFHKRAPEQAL
Method: as §1, §4, §5
as §6, with “session. […]” for “session.”
as §3
In this set of experiments, the GPe nucleus, which serves as a major relay nucleus exclusively belonging to the indirect pathway, was targeted. More specifically, the GPe neurons were activated using the excitatory Gq DREADDs, and the effect on behavior on 6-OHDA induced hemi-parkinsonian mice, was monitored.

[7] = molecular target: T3, Gq DREADD (hM3D(Gq)) in the GPe nucleus; experiment: Rotarod test, 6OHDA PD mice expressing Gq DREADD in GPe; type: in vivo, C57 black mice
Method: as §1, §2, §3

[8] = molecular target: T4, Gi DREADD (hM4D(Gi)) in the STN (Homo sapiens, UniProt P08173, A203G/Y113C); experiment: Open field test, 6OHDA PD mice expressing Gi DREADD in STN; type: in vivo, C57 black mice; details: blinded IP CNO
T4 construct: expressed in transfected cells; host or cells: neurons of C57 black mice (EP/SNr or STN), transduced with an AAV8 vector under the hSyn promoter
T4 sequence (P08173 1-479 Y113C/A203G): T2 sequence (P08173 1-479 Y113C/A203G)
Method: as §1, §2, §3

[9] = molecular target: T4, Gi DREADD (hM4D(Gi)) in the STN; experiment: Rotarod test, 6OHDA PD mice expressing Gi DREADD in STN; type: in vivo, C57 black mice; details: blinded IP CNO
Method: as §1, §2, §3

[10] = molecular target: T5, Gq DREADD (hM3D(Gq)) in the STN (Homo sapiens, UniProt P20309, A239G/Y149C); experiment: Open field test, 6OHDA PD mice expressing Gq DREADD in STN; type: in vivo, C57 black mice; details: IP CNO 5 mg/kg
T5 construct: expressed in transfected cells; host or cells: neurons of C57 black mice (GPe or STN), transduced with an AAV8 vector under the hSyn promoter
T5 sequence (P20309 whole entry Y149C/A239G): as above
Method: as §1, §4, §5, §6, §7, §3

[11] = molecular target: T5, Gq DREADD (hM3D(Gq)) in the STN; experiment: Rotarod test, 6OHDA PD mice expressing Gq DREADD in STN; type: in vivo, C57 black mice; details: IP CNO 5 mg/kg
Method: as §1, §2, §3

hM3Dq receptor (hM3D) = molecular target: T6, hM3Dq receptor (hM3D) (Homo sapiens, UniProt P20309, A239G/Y149C); details: human pulmonary artery smooth muscle cells (Armbruster et al., 2007); cited from earlier work
T6 construct: host or cells: human pulmonary artery smooth muscle cells
T6 sequence (P20309 whole entry Y149C/A239G): as above

[12] = 6OHDA bilateral PD mice, bilateral Gi DREADD in both EP and SNr nuclei, p<0.01
[13] = 6OHDA hemi PD mice, unilateral Gi DREADD in EP and SNr, IP CNO 5 mg/kg
[14] = 6OHDA bilateral PD mice, Gq DREADD in both GPe nuclei, p<0.01
[15] = 6OHDA hemi PD mice, unilateral Gq DREADD in GPe, IP CNO 5 mg/kg
[16] = 6OHDA hemi PD mice, unilateral Gq DREADD in STN
[17] = bilateral 6OHDA PD mice, bilateral Gq DREADD in STN

T1 sequence (P20309 whole entry): as the sequence (P20309 whole entry Y149C/A239G) above, with C149Y, G239A counted along it

Compound: CC(=O)OCC[N+](C)(C)C [ACh]
- activation of wild-type M3 muscarinic receptor (hM3) [1]: potently activated

Compound: C[N+]1([O-])CCN(C2=Nc3cc(Cl)ccc3Nc3ccccc32)CC1 [CNO, clozapine-N-oxide]
- movement velocity in the open field test, CNO vs NS [2]: no significant differences
- ipsilateral turning (number and percent of clockwise rotations), CNO vs NS ([2]; 5-minute open field): no significant differences
- time to falling off the rotating rod, CNO vs NS [3]: no significant differences
- mean velocity in motor activity test, CNO vs NS [4, 12]: beneficial effect
- improvement in the mean velocity in the open field test compared to NS [4, 13]: 36±9%
- reduction in the number of clockwise rotations compared to NS [4, 13]: 68.9±10.8%
- reduction in the percent of clockwise rotations compared to NS [4, 13]: 46±8.6%
- average time on the rotating rod in the rotarod test, CNO vs NS [5, 12]: beneficial effect
- increase in the time spent on the rotating rod in the rotarod test compared to NS [5, 13]: 30.5±7.1%
- mean velocity in motor activity test, CNO vs NS [6, 14]: beneficial effect
- increase in the mean velocity in the open field test compared to NS [6, 15]: 77.2±24.7%
- reduction in the number of clockwise rotations compared to NS [6, 15]: 37.7±20%
- reduction in the percent of clockwise rotations compared to NS [6, 15]: 40±7.8%
- average time on the rotating rod in the rotarod test, CNO vs NS [7, 14]: beneficial effect
- increase in the time spent on the rotating rod in the rotarod test compared to NS [7, 15]: 25.6±6.1%
- effect on turns, CNO vs NS [8]: small, yet significant beneficial effect
- mean velocity in the open field test, CNO vs NS [8]: did not significantly affect
- performances in the rotarod test, CNO vs NS [9]: did not significantly affect
- increase in the mean velocity in the open field test compared to NS [10, 16]: 117.6±26.9%
- reduction in the number of clockwise rotations compared to NS [10, 16]: 37.2±17%
- reduction in the percent of clockwise rotations compared to NS [10, 16]: 47.6±11.1%
- increase in the mean velocity in the open field test compared to NS [10, 17]: 294.4±70.9%
- performances in the rotarod test, CNO vs NS [11, 16]: no significant differences
- increase in the time before falling off the rotarod compared to NS [11, 17]: 81±15.8%
- activation of hM3Dq receptor resulting in PIP2 hydrolysis (hM3Dq receptor (hM3D)): selectively activated
- activation of wild-type M3 muscarinic receptor (hM3) [1]: not by CNO
